# From patent US20070128217A1 (priority 2003, published 2007)
# Key:
# [1] = test system: antibodies in sera from SARS patients (sera 1a, 1b, 2, 6, 37, 62, London, SARS-yellow, SARS-green); type: binding, human; set-up: Binding of serum 6 to linear peptides of protein X1 of SARS-CoV Urbani / Binding of serum 37 to linear peptides of protein X1 of SARS-CoV Urbani / Binding of serum 6 to looped/cyclic peptide (PEPSCAN-ELISA) / Binding of serum 37 to looped/cyclic peptide (PEPSCAN-ELISA) / Binding of serum 37 to looped/cyclic peptides of protein X1 of SARS-CoV Urbani / Binding of serum 6 to linear peptides of protein X2 / Binding of serum 37 to linear peptides of protein X2 / Binding of serum 37 to looped/cyclic peptides of protein X2 of SARS-CoV Urbani / Binding of serum 6 to linear peptides of protein M of SARS-CoV Urbani / Binding of serum 37 to linear peptides of protein M of SARS-CoV Urbani / Binding of serum 6 to looped/cyclic peptides of protein M of SARS-CoV Urbani / Binding of serum 37 to looped/cyclic peptides of protein M of SARS-CoV Urbani / Binding of serum 6 to linear peptides of protein X3 of SARS-CoV Urbani / Binding of serum 37 to linear peptides of protein X3 of SARS-CoV Urbani / Binding of serum 37 to looped/cyclic peptides of protein X3 of SARS-CoV Urbani / Binding of serum 6 to linear peptides of protein X4 of SARS-CoV Urbani / Binding of serum 37 to linear peptides of protein X4 of SARS-CoV Urbani / Binding of serum 37 to looped/cyclic peptides of protein X4 of SARS-CoV Urbani / Binding of serum 6 to linear peptides of protein X5 of SARS-CoV Urbani / Binding of serum 37 to linear peptides of protein X5 of SARS-CoV Urbani / Binding of serum 37 to looped/cyclic peptides of protein X5 of SARS-CoV Urbani / Binding of serum 6 to linear peptides of protein N of SARS-CoV Urbani / Binding of serum 37 to linear peptides of protein N of SARS-CoV Urbani / Binding of serum 6 to linear peptide (PEPSCAN-ELISA) / Binding of serum 1a to looped/cyclic peptides of protein N of SARS-CoV Urbani / Binding of serum 1b to looped/cyclic peptides of protein N of SARS-CoV Urbani / Binding of serum 2 to looped/cyclic peptides of protein N of SARS-CoV Urbani / Binding of serum 6 to looped/cyclic peptides of protein N of SARS-CoV Urbani / Binding of serum 37 to looped/cyclic peptides of protein N of SARS-CoV Urbani / Binding of serum 62 to looped/cyclic peptides of protein N of SARS-CoV Urbani / Binding of serum London to looped/cyclic peptides of protein N of SARS-CoV Urbani / Binding of serum SARS-green to looped/cyclic peptides of protein N of SARS-CoV Urbani: unit not given here
# [2] = test system: control sera (pooled serum of ten healthy LUMC hospital workers; commercial negative donor pooled serum from the Dutch bloodbank); type: binding, human; set-up: Binding of Control serum LUMC to linear peptides / Binding of Control serum Blood-bank to linear peptides / Binding of Control serum LUMC to looped peptides / Binding of Control Serum Blood-Bank to Looped peptides / Binding of Control serum LUMC to linear peptides of the protein M of SARS-CoV Urbani / Binding of Control serum Blood-bank to linear peptides of the protein M of SARS-CoV Urbani / Binding of Control serum LUMC to looped peptides of the protein M of SARS-CoV Urbani / Binding of Control Serum Blood-Bank to Looped peptides of the protein M of SARS-CoV Urbani: unit not given here
# [3] = test system: rabbit serum obtained by immunizing a rabbit with the SARS-CoV strain Frankfurt 1; type: binding; set-up: Binding of a rabbit serum to linear peptides / Binding of a rabbit serum to looped peptides / Rabbit serum linear peptides / Rabbit serum looped peptides / Binding of a rabbit serum to linear peptides of protein N of SARS-CoV Urbani (Rabbit serum linear peptides) / Binding of a rabbit serum to looped/cyclic peptides of protein N of SARS-CoV Urbani (Rabbit serum looped peptides): unit not given here
# [4] = test system: recombinant human anti-SARS-CoV antibody 03-018; type: binding; set-up: Binding of antibody 03-018 to linear peptides of the N protein of SARS-CoV Urbani / Binding of antibody 03-018 to looped/cyclic peptides of the N protein of SARS-CoV Urbani: unit not given here
Sequence,Binding of serum 1a to looped/cyclic peptides of protein N of SARS-CoV Urbani [1],Binding of serum 1b to looped/cyclic peptides of protein N of SARS-CoV Urbani [1],Binding of serum 2 to looped/cyclic peptides of protein N of SARS-CoV Urbani [1],Binding of serum 6 to looped/cyclic peptides of protein N of SARS-CoV Urbani [1],Binding of serum 37 to looped/cyclic peptides of protein N of SARS-CoV Urbani [1],Binding of serum 62 to looped/cyclic peptides of protein N of SARS-CoV Urbani [1],Binding of serum London to looped/cyclic peptides of protein N of SARS-CoV Urbani [1],Binding of serum SARS-green to looped/cyclic peptides of protein N of SARS-CoV Urbani [1],Binding of serum SARS-yellow to looped/cyclic peptides of protein N of SARS-CoV Urbani [1],Binding of Control Serum Blood-Bank to Looped peptides [2],Binding of Control serum Blood-bank to linear peptides [2],Binding of Control serum LUMC to linear peptides [2],Binding of Control serum LUMC to looped peptides [2],Binding of a rabbit serum to linear peptides of protein N of SARS-CoV Urbani (Rabbit serum linear peptides) [3],Binding of a rabbit serum to looped/cyclic peptides of protein N of SARS-CoV Urbani (Rabbit serum looped peptides) [3],Binding of antibody 03-018 to linear peptides of the N protein of SARS-CoV Urbani [4],Binding of antibody 03-018 to looped/cyclic peptides of the N protein of SARS-CoV Urbani [4],Binding of serum 1a to linear peptides of protein N of SARS-CoV Urbani [1],Binding of serum 1b to linear peptides of protein N of SARS-CoV Urbani [1],Binding of serum 2 to linear peptides of protein N of SARS-CoV Urbani [1],further results
YAEGSRGGSQASSRS,0.3,0.2,0.3,0.2,0.4,0.2,0.3,0.3,0.1,0.4,0.9,0.7,0.6,0.2,0.0,0.1,0.2,,,,Binding of serum 1a to linear peptide (PEPSCAN-ELISA) [1]: 0.3; Binding of serum 1b to linear peptide (PEPSCAN-ELISA) [1]: 0.1; Binding of serum 2 to linear peptide (PEPSCAN-ELISA) [1]: 0.3; Binding of serum 6 to linear peptide (PEPSCAN-ELISA) [1]: 0.4; Binding of serum 37 to linear peptide (PEPSCAN-ELISA) [1]: 0.7; Binding of serum 62 to linear peptide (PEPSCAN-ELISA) [1]: 0.7; Binding of serum London to linear peptide (PEPSCAN-ELISA) [1]: 0.5; Binding of serum SARS-green to linear peptide (PEPSCAN-ELISA) [1]: 0.6; Binding of serum SARS-yellow to linear peptide (PEPSCAN-ELISA) [1]: 0.6
YFYYLGTGPEASLPY,0.4,0.3,0.5,0.3,0.9,0.7,0.4,0.4,0.6,0.7,0.7,0.6,0.8,0.1,0.6,0.1,0.2,0.3,0.1,0.3,Binding of serum 6 to linear peptides of protein N of SARS-CoV Urbani [1]: 0.2; Binding of serum 37 to linear peptides of protein N of SARS-CoV Urbani [1]: 0.7; Binding of serum 62 to linear peptides of protein N of SARS-CoV Urbani [1]: 0.8; Binding of serum London to linear peptides of protein N of SARS-CoV Urbani [1]: 0.4; Binding of serum SARS-green to linear peptides of protein N of SARS-CoV Urbani [1]: 0.0; Binding of serum SARS-yellow to linear peptides of protein N of SARS-CoV Urbani [1]: 0.7
YGANKEGIVWVATEG,0.4,0.3,0.5,0.3,0.8,0.7,0.4,0.4,0.7,0.7,0.6,0.6,0.7,0.1,0.5,0.1,0.2,0.3,0.1,0.2,Binding of serum 6 to linear peptides of protein N of SARS-CoV Urbani [1]: 0.2; Binding of serum 37 to linear peptides of protein N of SARS-CoV Urbani [1]: 0.8; Binding of serum 62 to linear peptides of protein N of SARS-CoV Urbani [1]: 0.7; Binding of serum London to linear peptides of protein N of SARS-CoV Urbani [1]: 0.4; Binding of serum SARS-green to linear peptides of protein N of SARS-CoV Urbani [1]: 0.4; Binding of serum SARS-yellow to linear peptides of protein N of SARS-CoV Urbani [1]: 0.7
